Experimental data from US7601702B2, “Dutpase Inhibitors” (Medivir AB, priority 2004, dated 2009).
In brackets after ≈: the same amount, converted by molar mass. Structures can show the parent of a compound that is named as a salt. Where two headings read alike, the source gives them in different places.

Legend:
Plasmodium falciparum = experiment: Malaria whole cell assay (cell culture); format: cell-based; conditions: read-out: ED50 (the source's name)
Description: (§1) Two strains of P. falcipanum are used in this study: The drug sensitive NF54 (an airport strain of unknown origin) and K1 (Thailand, chloroquine and pyrimethamine resistant). The strains are maintained in RPMI-1640 medium with 0.36 mM hypoxanthine supplemented with 25 mM HEPES, 25 mM NaHCO3, neomycin (100 U/ml) and Albumax® (lipid-rich bovine serum albumin) (GIBCO, Grand Island, N.Y.) (5 g/l), together with 5% washed human A+ erythrocytes. All cultures and assays are conducted at 37° C. under an atmosphere of 4% CO2, 3% O2 and 93% N2. Cultures are kept in incubation chambers filled with the gas mixture. Subcultures are diluted to a parasitaemia of 0.1-0.5% and the medium changed daily.
(§2) Antimalarial activity is assessed using an adaptation of the procedures described by Desjardins et al. (Antimicrob. Agents Chemother. 16(6):710-8, 1979), and Matile and Pink (In: Lefkovits, I. and Pernis, B. (Eds.). Immunological Methods. Academic Press, San Diego, pp. 221-234, 1990).
After use the stocks are kept at −20° C. The compound is further diluted to the appropriate concentration using complete medium without hypoxanthine.
Assays are performed in sterile 96-well microtiter plates, each well containing 200 μl of parasite culture (0.15% parasitemia, 2.5% hematocrit) with or without serial drug solutions. Seven 2-fold dilutions are used covering a range from 5 μg/ml to 0.078 μg/ml.
After 48 hours of incubation at 37° C., 0.5 μCi ^3H-hypoxanthine is added to each well. Cultures are incubated for a further 24 h before they are harvested onto glass-fiber filters and washed with distilled water. The radioactivity is counted using a Betaplate™ liquid scintillation counter (Wallac, Zurich, Switzerland). […] From the sigmoidal inhibition curves IC50 values are calculated.
K1 strain is used. The compounds are tested at 7 concentrations (5000 to 78 ng/ml). Artemisinin and chloroquine are included as reference drugs.

[1] = molecular target: T1, Plasmodium falciparum dUTPase (Plasmodium falciparum, UniProt Q8II92); experiment: Malaria enzyme assay: inhibition of Plasmodium falciparum dUTPase; format: biochemical
T1 construct: made in house; host or cells: E. coli BL21 (DE3)
T1 sequence (Q8II92 1-173): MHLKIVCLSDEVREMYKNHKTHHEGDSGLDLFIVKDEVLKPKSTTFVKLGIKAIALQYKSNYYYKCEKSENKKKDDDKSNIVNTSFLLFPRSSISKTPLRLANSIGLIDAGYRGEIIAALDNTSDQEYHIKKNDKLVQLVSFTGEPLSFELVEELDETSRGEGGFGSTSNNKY
Description: Inhibition of Plasmodium falciparum dUTPase
2′-dUTP, was purchased from Pharmacia. MgCl2, BSA, and the pH indicator cresol red were from Sigma. The buffer N,N-bis(2-hydroxyethyl)glycine (BICINE) was obtained from USB (United States Biochemical), Ohio. All the concentrations of nucleotides were calculated spectrophotometrically (HP-8453, Hewlett Packard) at 280 nm, using the extinction coefficient (ε280 nm=1.75 ml mg^−1cm^−1). Other chemicals used in these experiments were of the highest quality available.
Recombinant P. falciparum dUTPase was purified from E. coli BL21 (DE3) cells transformed with pET-PFdut. Pellets from a liter of culture were resuspended in a solution consisting of buffer A (20 mM MES pH 5.5, 50 mM NaCl, 1 mM DTT) plus the protease inhibitors 1 mM PMSF, 20 μg/ml leupeptin and 1 mM benzamidine. Purification was carried out in a cold room (4° C.). The soluble crude extract was obtained by sonication in a Vibra-cell (Sonics and Materials Inc. Danbury, Conn., USA) and centrifugation at 14000×g. The extract was loaded onto a phosphocellulose column (Whatman) pre-equilibrated with buffer A at a flow rate of 1 ml/min. After washing the column with 100 ml of buffer A, elution was performed using a linear NaCl gradient of 50 to 1000 mM. Peak fractions with a low concentration of contaminating protein, as judged by 15% SDS-PAGE gels, were pooled and then loaded and chromatographed on a Superdex 200 column at a flow rate of 0.5 ml/min. The column was equilibrated with buffer B (50 mM Bicine, 1 mM DTT, 10 mM MgCl2). Peak fractions were pooled and concentrated to about 5 mg/ml by ultrafiltration in a Centripep tube (Amicon) and stored at −80° C.
Nucleotide hydrolysis was monitored by mixing enzyme and substrate with a rapid kinetic accessory (Hi-Tech Scientific) attached to a spectrophotometer (Cary 50) and connected to a computer for data acquisition and storage. Protons, released through the hydrolysis of nucleotides, were neutralised by a pH indicator in a weak buffered medium with similar pKa and monitored spectrophotometrically at the absorbance peak of the basic form of the indicator. Absorbance changes were kept within 0.1 units. The indicator/buffer pair used was cresol red/BICINE ([…], pH 8, 573 nm). The measurements were performed at 25° C., and the solutions were previously degassed. Assays contained 30 nM purified recombinant enzyme, 50 μM dUTP, 5 mM MgCl2 and 2.5 mM DTT, 1.25 mg/ml BSA and 100 mM KCl. Indicator absorbance changes corresponding to complete hydrolysis of nucleotides were recorded in the computer, and the kinetic parameters Vmax and Kmapp (or slope) were calculated by fitting the data to the integrated Michaelis-Menten equation (Segel, 1975). [dUMP]/t=Vmax−Kmap/t ln [dUTP]([dUTP]−[dUMP])
Solutions of potential inhibitors were prepared at 10 mg/ml and tested routinely at concentrations of […]. A wider range of concentrations was further tested when necessary for Ki determination. The different apparent Km values attained were plotted against inhibitor concentration and Ki values were obtained according to the following equation: […]

P. falciparum K1 = experiment: Malaria whole cell assay, K1 strain; format: cell-based; conditions: Plasmodium falciparum
Description: as §1, §2
(§3) After use the stocks are kept at −20° C. The compound is further diluted to the appropriate concentration using complete medium without hypoxanthine. […]
(§4) After 48 hours of incubation at 37° C., 0.5 μCi ^3H-hypoxanthine is added to each well. […] The radioactivity is counted using a Betaplate™ liquid scintillation counter (Wallac, Zurich, Switzerland). […] From the sigmoidal inhibition curves IC50 values are calculated. […]

P. falciparum NF54 = experiment: Malaria whole cell assay, NF54 strain; format: cell-based; conditions: Plasmodium falciparum
Description: as §1, §2, §3, §4

[2] = Plasmodium falciparum enzyme, read-out: Ki

In the case of `O=c1ccn([C@H]2C[C@H](F)[C@@H](COC(c3ccccc3)(c3ccccc3)c3ccccc3)O2)c(=O)[nH]1` [drawing 58 Ph3CO, 3′-Fluoro-5′-O-trityl-2′,3′-dideoxyuridine], the EC50 (Plasmodium falciparum) is reported as 2000 nM and the Ki [1, 2] is reported as 5 µM.
With `COc1ccc(C(NC[C@H]2O[C@@H](n3ccc(=O)[nH]c3=O)CC2O)(c2ccccc2)c2ccccc2)cc1` (stereo partly shown) (as salt: salt) [Example 23, 5′-paraMethoxytritylamino-2′,5′-dideoxyuridine] the melting point was 140 to 142 °C.
In the case of `O=c1ccn([C@H]2C[C@H](F)[C@@H](CNC(c3ccccc3)(c3ccccc3)c3ccccc3)O2)c(=O)[nH]1` [drawing 58 Ph3NH, 3′-Fluoro-5′-tritylamino-2′,3′,5′-trideoxyuridine], the EC50 (Plasmodium falciparum) is reported as 5300 nM and the Ki [1] is reported as 12 µM.
For `O=c1ccn(C2CC(O)C(CNC3(c4ccccc4)c4ccccc4Oc4ccccc43)O2)c(=O)[nH]1` (stereo not shown) [Example 26, 5′-Pixylamino-2′,5′-dideoxyuridine], the melting point was 117 to 119 °C.
Work on `O=c1ccn([C@H]2C=C[C@@H](CO[Si](c3ccccc3)(c3ccccc3)c3ccccc3)O2)c(=O)[nH]1` [drawing 57 TPSO, 5′-Triphenylsilyloxy-2′,3′-dideoxydidehydrouridine] yielded an EC50 (Plasmodium falciparum) of 1000 nM and a Ki [1] of 1.3 µM.
`O=c1ccn([C@H]2C[C@H](O)[C@@H](CNC(c3ccccc3)(c3ccccc3)c3ccccc3Cl)O2)c(=O)[nH]1` [Example 24, 5′-[(2-chlorotrityl)amino]2′,5′-dideoxyuridine] showed a melting point of 129 to 131 °C.
Work on `CC(C)(C)[Si](OCC1C=CC(n2ccc(=O)[nH]c2=O)O1)(c1ccccc1)c1ccccc1` (stereo not shown) [drawing 57 TBDPSO, 5′-O-tert-butyldiphenylsilyl-2′,3′-dideoxydidehydrouridine] yielded an EC50 (Plasmodium falciparum) of 3000 nM and a Ki [1, 2] of 1.2 µM.
Compound `C[C@@H]1CC[C@H]2[C@@H](C)C(=O)O[C@@H]3O[C@@]4(C)CC[C@@H]1[C@]32OO4` [artemisinin] has an IC50 (P. falciparum K1; K1 strain, read-out: IC50) of 0.0008 µg/mL (≈ 2.83 nM) and an IC50 (P. falciparum NF54; NF54 strain, read-out: IC50) of 1.9 ng/mL (≈ 6.73 nM).
For `O=c1ccn([C@H]2C[C@H](O)[C@@H](CNC(c3ccccc3)(c3ccccc3)c3ccccc3)O2)c(=O)[nH]1` [drawing 55 Ph3CNH, 5′-Tritylamino-2′,5′-dideoxyuridine], the EC50 (Plasmodium falciparum) was 4500 nM and the Ki [1, 2] was 0.2 µM.
Compound `CC(C)(C)[Si](OC[C@H]1O[C@@H](n2ccc(=O)[nH]c2=O)C[C@@H]1O)(c1ccccc1)c1ccccc1` [drawing 55 TBDPSO, 5′-O-tert-Butyldiphenylsilyl-2′-deoxyuridine] has an EC50 (Plasmodium falciparum) of 6600 nM and a Ki [1, 2] of 4.2 µM.
Work on `CC(C)(C)[Si](C)(C)OC1CC(n2ccc(=O)[nH]c2=O)OC1COC(c1ccccc1)(c1ccccc1)c1ccccc1` (stereo not shown) [drawing 56 Ph3CO, 1-[4-(tert-Butyl-dimethyl-silanyloxy)-5-trityloxymethyl-tetrahydro-furan-2-yl]-1H pyrimidine-2,4-dione] yielded an EC50 (Plasmodium falciparum) of 1000 nM and a Ki [1] of 515 µM.
With `CCN(CC)CCCC(C)Nc1ccnc2cc(Cl)ccc12` (stereo not shown) [chloroquine] the IC50 (P. falciparum K1; K1) was 0.048 µg/mL (≈ 150 nM) and the IC50 (P. falciparum NF54; NF54) was 2.9 ng/mL (≈ 9.07 nM).
`COc1ccc(C(OC[C@H]2O[C@@H](n3ccc(=O)[nH]c3=O)CC2O)(c2ccccc2)c2ccccc2)cc1` (stereo partly shown) [Example 20, 5′-O-paramethoxytrityl-2′-deoxyuridine] gave a melting point of 96 to 97 °C.
Compound `O=c1ccn(C2CC(O)C(CNC(c3ccccc3)(c3ccccc3)c3ccncc3)O2)c(=O)[nH]1` (stereo not shown) [Example 8, 5′-(4-pyridydiphenylmethyl)amino-2′,5′-dideoxyuridine] has a melting point of 131 to 133 °C.
`CC(C)(C)[Si](OC[C@H]1O[C@@H](n2ccc(=O)[nH]c2=O)CC1F)(c1ccccc1)c1ccccc1` (stereo partly shown) [drawing 58 TBDPSO, 3′-Fluoro-5′-O-tert-Butyidiphenylsilyl-2′,3′-dideoxyuridine] gave an EC50 (Plasmodium falciparum) of 8800 nM and a Ki [1] of 89 µM.
In the case of `N#Cc1ccc(C(NC[C@H]2O[C@@H](n3ccc(=O)[nH]c3=O)C[C@@H]2O)(c2ccccc2)c2ccccc2)cc1` [Example 22, 5′-[(4-cyanotrityl)amino]-2′,5′-dideoxyuridine], the melting point is reported as 160 to 163 °C.
In the case of `O=c1ccn([C@H]2C[C@H](O)[C@@H](CO[Si](c3ccccc3)(c3ccccc3)c3ccccc3)O2)c(=O)[nH]1` [drawing 55 TPSO, 5′-O-Triphenylsilyl-2′-deoxyuridine], the EC50 (Plasmodium falciparum) is reported as 1100 nM and the Ki [1, 2] is reported as 2.8 µM.
Work on `O=c1ccn([C@H]2C[C@H](O)[C@@H](COC(c3ccccc3)(c3ccccc3)c3ccccc3)O2)c(=O)[nH]1` [drawing 55 Ph3CO, 5′-O-trityl-2′-deoxyuridine] yielded an EC50 (Plasmodium falciparum) of 6000 nM and a Ki [1, 2] of 1.8 µM.
`O=c1ccn([C@H]2C[C@H](F)[C@@H](CO[Si](c3ccccc3)(c3ccccc3)c3ccccc3)O2)c(=O)[nH]1` [drawing 58 TPSO, 3′-Fluoro-5′-O-triphenylsilyl-2′,3′-dideoxyuridine] gave an EC50 (Plasmodium falciparum) of 1000 nM and a Ki [1] of 975 µM.
With `CC(C)(C)[Si](C)(C)OC1C[C@H](n2ccc(=O)[nH]c2=O)O[C@@H]1CNC(c1ccccc1)(c1ccccc1)c1ccccc1` (stereo partly shown) [drawing 56 Ph3NH, 3′-O-tertbutyldimethylsilyl-5′-Tritylamino-2′,5-dideoxyuridine] the EC50 (Plasmodium falciparum) was 1800 nM and the Ki [1] was 313 µM.
